Key:
Hepatitis C virus = assay: Antiviral activity against HCV genotype 1a H77c infected in human HuH7 cells after 3 days by luciferase reporter gene assay; assay type: functional, cell-based, Hepacivirus hominis; settings: Huh-7, 72 h
Liver microsome = assay: Metabolic stability in human liver microsomes; assay type: ADME
[1] = Cytotoxicity against human HuH7 cells after 4 hrs by CellTitre-Blue assay; assay type: cell-based, Huh-7
[2] = Inhibition of HCV genotype 1b wild type NS5B polymerase using biotinylated oligo dT12 primer as substrate after 4 hrs in presence of [3H]UTP; set-up: species or system Hepatitis C virus subtype 1b
[3] = Inhibition of CYP (unknown origin); assay type: ADME; settings: human
[4] = Half life in dog liver microsomes; assay type: ADME, Canis lupus familiaris
[5] = Half life in monkey liver microsomes; assay type: ADME, Macaca mulatta; settings: rhesus monkey

SMILES	EC50 (Hepatitis C virus) [nM]	Stability (Liver microsome)	CC50 at 4 h [1] [nM]	IC50 [2] [nM]	inhibition (INH) [3]	half-life [4] [min]	half-life [5] [min]
CCOCCN1CC23CCC2(C1)CN(C(=O)[C@]12C[C@H]1c1cc(OC)ccc1-c1c(C4CCCCC4)c4ccc(C(=O)NS(=O)(=O)C(C)C)cc4n1C2)C3 (some centres not stated)	15	Unstable	10000				
COc1ccc2c(c1)[C@@H]1C[C@]1(C(=O)N1CC34CCC3(C1)CN(S(=O)(=O)C(C)C)C4)Cn1c-2c(C2CCCCC2)c2ccc(C(=O)NS(=O)(=O)N(C)C)cc21 (some centres not stated)	6		5000	3	Active		
COc1ccc2c(c1)[C@@H]1C[C@]1(C(=O)N1CC34CCC3(CN(C(=O)N(C)C)C4)C1)Cn1c-2c(C2CCCCC2)c2ccc(C(=O)NS(=O)(=O)C(C)C)cc21 (some centres not stated)	12		16000	3		22	24

From ChEMBL document CHEMBL3232986, “Identification of a novel series of potent HCV NS5B Site I inhibitors” (Bioorg Med Chem Lett, 2014)
